{
  "source": "patent US20030082249A1",
  "about": "“Compositions containing capsaicin and its derivatives, and their use in treating mucositis” (Ovation Pharmaceuticals, priority 2001, published 2003)",
  "key": {"[1]": {"system": "substance P", "details": "comparison with capsaicin; prevents pain sensation without compromising touch or motor coordination; cited from earlier work"}, "[2]": {"details": "cited from earlier work"}, "[3]": {"test": "Use of capsaicin to induce salivation: application to oral mucosa of a human subject, saliva collected for 15 minutes", "type": "in vivo", "experimental": "A subject was used as a test subject to determine whether application of capsaicin to oral mucosa causes salivation. Approximately 0.25 inches of capsaicin (0.025% generic capsaicin cream) was applied to the oral mucosa. […] Saliva was collected for a period of about 15 minutes in a paper cup. The amount was compared to the amount of saliva collected for a period of 15 minutes before applying capsaicin to the oral mucosa. […] The increased salivation continued for approximately an hour. In preferred embodiments of the present invention, capsaicin or capsaicinoid is combined with one or more of the following: antihistamines such as Benadryl®, or other antihistamines, antibacterials, antifungals, antivirals, and/or antipruritis medications, such as those described above."}},
  "data": [
    {"smiles": "COc1cc(CNC(=O)CCCC/C=C\\C(C)C)ccc1O", "note": "[Civamide, cis-capsaicin]", "values": [
      {"measurement": "depletion of substance P compared with capsaicin", "setting": "[1]", "value": "more effective than capsaicin in depleting substance P"}
    ]},
    {"smiles": "CC[C@@H]1C(=O)OC[C@@H]1Cc1cncn1C", "note": "[pilocarpine]", "values": [
      {"measurement": "stimulation of salivary glands", "setting": "[2]; patients experiencing xerostomia due to radiotherapy", "value": "effective in stimulating salivary glands"},
      {"measurement": "side effects of treatment", "setting": "[2]; pilocarpine treatment", "value": "often associated with side effects involving heart, blood pressure, digestion and profuse sweating"}
    ]},
    {"smiles": "COc1cc(CNC(=O)CCCC/C=C/C(C)C)ccc1O", "note": "[capsaicin]", "values": [
      {"measurement": "duration of increased salivation", "setting": "[3]; one subject, 0.025% capsaicin cream on oral mucosa", "value": "approximately an hour"},
      {"measurement": "increase in salivation relative to baseline level of salivation", "setting": "[3]; one subject, about 0.25 inches of 0.025% capsaicin cream on oral mucosa, saliva collected about 15 minutes vs 15 minutes before application, estimated", "value": "about two to three times the baseline level"},
      {"measurement": "sensation reported by the subject after application", "setting": "[3]; within a few minutes of application, increased in intensity for about twenty minutes", "value": "warm feeling in the mouth"}
    ]}
  ]
}
